Measured values taken from ChEMBL document CHEMBL3826906, “Synthesis of MR-49, a deiodinated analog of tetraiodothyroacetic acid (tetrac), as a novel pro-angiogenesis modulator” (2016).

Tests used:
[1] = tested on: Mus musculus; experiment: Pro-angiogenic activity in Balb/c mouse subcutaneously implanted 4 times with 10 ug/implant compound treated mouse EHS-derived matrigel assessed as FGF2-induced matrigel plug vascularization by measuring increase in hemoglobin level measured after 7 to 10 days by spectrophotometric analysis relative to control; assay type: functional
[2] = tested on: Mus musculus; experiment: Antiangiogenic activity in Balb/c mouse subcutaneously implanted 4 times with 10 ug/implant compound treated mouse EHS-derived matrigel assessed as inhibition of FGF2-induced matrigel plug vascularization by measuring decrease in hemoglobin level measured after 7 to 10 days by spectrophotometric analysis relative to control; assay type: functional

Row | Structure (SMILES) | fold change (FC) [1] | inhibition (INH) [2]
1 | O=C(O)Cc1cc(I)c(Oc2ccc(O)cc2)c(I)c1 | 1.6 | 
2 | N[C@@H](Cc1cc(I)c(Oc2ccc(O)c(I)c2)c(I)c1)C(=O)O [LIOTHYRONINE] | 1.4 | 
3 | O=C(O)Cc1cc(I)c(Oc2cc(I)c(O)c(I)c2)c(I)c1 [TETRAC] |  | 50%
